Measured values as given in patent US8623429B2, “Stabilized anthocyanin compositions” (Omnica GmbH, priority 2007, dated 2014).
Values belong to the compound of their own block, whether it stands above or below them.

Tests used:
[1] = Example 3: stability of black currant extract anthocyanosides, 4 hours at 37° C., pH 7.0, with/without DHLA, GSH or L-cysteine (HPLC); type: physicochemical; conditions: for Peak Area, Fresh solution: black currant extract 60 mg/100 ml buffer pH 7.0, fresh sample; for % left, DHLA 20 mg / % left, GSH 20 mg / % left, L-cysteine 20 mg / Peak Area, DHLA 20 mg / Peak Area, GSH 20 mg / Peak Area, L-cysteine 20 mg / % left, Blank / Peak Area, Blank: pH 7.0, 37° C., 4 hours; for % left, Blank / Peak Area, Blank: unprotected
Experimental: (§1) Sample a) 60 mg black currant extract [35% anthocyanosides] (0.037 mmol anthocyanosides expressed as cyanidin-3-O-rutinoside) were added to a 100 ml flask and filled to volume with sodium phosphate buffer (5% [w/w], pH=7.0) and stirred until dissolution was complete. A 1 ml sample was taken immediately, acidified with formic acid to pH=1.0 and analyzed by HPLC for the content of anthocyanosides (Fresh Sample). The remaining solution was kept for 4 hours at 37° C. (water bath) with stirring. Thereafter samples (Blank sample), representing unprotected degradation, were taken and acidified.
(§2) Sample b) 20 mg reduced L-glutathione (0.065 mmol) were added to a 100 ml flask with 60 ml sodium phosphate buffer (5% [w/w], pH=7.0) and stirred until dissolution was complete. 60 mg black currant extract [35% anthocyanosides] (0.037 mmol anthocyanosides expressed as cyanidin-3-O-rutinoside) were then added and the flask was filled to volume with sodium phosphate buffer (5% [w/w], pH=7.0) and kept for 4 hours at 37° C. (water bath) with stirring.
as §2, with “Sample c)” for “Sample b)”, “mg dihydrolipoic acid (0.096” for “mg reduced L-glutathione (0.065”, “was completed.” for “was complete.”, “were” for “were then”, “added to” for “added and”, “the flask,” for “the flask was”
as §2, with “Sample d)” for “Sample b)”, “mg L-cysteine acid (0.165” for “mg reduced L-glutathione (0.065”, “were” for “were then”, “added to” for “added and”, “the flask,” for “the flask was”
After 4 hours samples were taken, acidified immediately with formic acid to pH=1.0 and analyzed by HPLC for the content of anthocyanosides. Degradation is expressed as decrease in peak area of individual peaks (calculated as % left after 4 hours).
(§3) Samples were prepared as outlined below in HPLC Analytical Method. Test stability samples were immediately acidified (to block degradation) and injected undiluted following the detailed description provided below.
HPLC Analytical Method (Materials, Instruments and Methods): […]

[2] = Example 5: degradation over time of black currant anthocyanosides at 37° C., pH 7.0, with/without GSH (HPLC); type: physicochemical; conditions: pH 7.0, 37° C.; for %-residual anthocyanosides (% left): 4 hours
Experimental: as §1, with “flask,” for “flask and”, “anthocyanosides.” for “anthocyanosides (Fresh Sample).”, “kept” for “kept for 4 hours”, “stirring and 1 ml” for “stirring. Thereafter”, “Samples),” for “sample),”, “every 15 minutes. The samples were analyzed for selected anthocyanosides by HPLC.” for “and acidified.”
as §2, with “added,” for “then added and”, “for” for “for 4 hours”, “stirring. Every 15 minutes 1 ml samples were taken and analyzed for selected anthocyanosides by HPLC.” for “stirring.”
as §3

[3] = GSH protected sample (20 mg), 0:00 h
[4] = GSH protected sample (20 mg), 0:15 h
[5] = GSH protected sample (20 mg), 0:45 h
[6] = GSH protected sample (20 mg), 1:00 h
[7] = GSH protected sample (20 mg), 1:15 h
[8] = GSH protected sample (20 mg), 1:45 h
[9] = GSH protected sample (20 mg), 2:00 h
[10] = GSH protected sample (20 mg), 2:15 h
[11] = GSH protected sample (20 mg), 2:45 h
[12] = GSH protected sample (20 mg), 3:00 h
[13] = GSH protected sample (20 mg), 3:15 h
[14] = GSH protected sample (20 mg), 3:45 h
[15] = GSH protected sample (20 mg), 4:00 h
[16] = GSH protected sample (20 mg), 4:15 h

- Peak Area, Fresh solution [1]: 3539
- % left, DHLA 20 mg [1]: 51.1%
- % left, GSH 20 mg [1]: 65.0%
- % left, L-cysteine 20 mg [1]: 38.9%
- Peak Area, DHLA 20 mg [1]: 1809
- Peak Area, GSH 20 mg [1]: 2299
- Peak Area, L-cysteine 20 mg [1]: 1377
- % left, Blank [1]: 33.4%
- Peak Area, Blank [1]: 1183
- Peak Area ([2]; Blank sample, 0:00 h): 3539.1
- Peak Area ([2]; Blank sample, 0:15 h): 2707.4
- Peak Area ([2]; Blank sample, 0:30 h): 2620.7
- Peak Area ([2]; Blank sample, 0:45 h): 2342.2
- Peak Area ([2]; Blank sample, 1:00 h): 2278.1
- Peak Area ([2]; Blank sample, 1:30 h): 2130.7
- Peak Area ([2]; Blank sample, 1:45 h): 2104.9
- Peak Area ([2]; Blank sample, 2:00 h): 1894.9
- Peak Area ([2]; Blank sample, 2:15 h): 1851.7
- Peak Area ([2]; Blank sample, 2:30 h): 1790.9
- Peak Area ([2]; Blank sample, 2:45 h): 1694.9
- Peak Area ([2]; Blank sample, 3:00 h): 1573.5
- Peak Area ([2]; Blank sample, 3:15 h): 1531.6
- Peak Area ([2]; Blank sample, 3:30 h): 1370.4
- Peak Area ([2]; Blank sample, 3:45 h): 1361.3
- Peak Area ([2]; Blank sample, 4:00 h): 1182.9
- %-residual anthocyanosides (% left) ([2]; Blank): 33%
- Peak Area [2, 3]: 3473.6
- Peak Area [2, 4]: 3108.1
- Peak Area [2, 5]: 2964.3
- Peak Area [2, 6]: 3015.3
- Peak Area [2, 7]: 2958.5
- Peak Area [2, 8]: 2688.8
- Peak Area [2, 9]: 2777.8
- Peak Area [2, 10]: 2579.6
- Peak Area [2, 11]: 2447.1
- Peak Area [2, 12]: 2534.7
- Peak Area [2, 13]: 2366.8
- Peak Area [2, 14]: 2274.2
- Peak Area [2, 15]: 2298.9
- Peak Area [2, 16]: 2199.7
- %-residual anthocyanosides (% left) ([2]; GSH-protected): 66%
SMILES: C[C@@H]1O[C@@H](OC[C@H]2O[C@@H](Oc3cc4c(O)cc(O)cc4[o+]c3-c3ccc(O)c(O)c3)[C@H](O)[C@@H](O)[C@@H]2O)[C@H](O)[C@H](O)[C@H]1O [Cn-3-O-Rut, Cyanidin-3-O-rutinoside]

- Peak Area, Fresh solution [1]: 5207
- % left, DHLA 20 mg [1]: 51.7%
- % left, GSH 20 mg [1]: 53.1%
- % left, L-cysteine 20 mg [1]: 38.0%
- Peak Area, DHLA 20 mg [1]: 2692
- Peak Area, GSH 20 mg [1]: 2764
- Peak Area, L-cysteine 20 mg [1]: 1975
- % left, Blank [1]: 12.0%
- Peak Area, Blank [1]: 626.2
- Peak Area ([2]; Blank sample, 0:00 h): 5207.5
- Peak Area ([2]; Blank sample, 0:15 h): 3604.2
- Peak Area ([2]; Blank sample, 0:30 h): 3366.5
- Peak Area ([2]; Blank sample, 0:45 h): 2787.9
- Peak Area ([2]; Blank sample, 1:00 h): 2660.6
- Peak Area ([2]; Blank sample, 1:30 h): 2299.5
- Peak Area ([2]; Blank sample, 1:45 h): 2291.6
- Peak Area ([2]; Blank sample, 2:00 h): 1825.7
- Peak Area ([2]; Blank sample, 2:15 h): 1747.2
- Peak Area ([2]; Blank sample, 2:30 h): 1552.5
- Peak Area ([2]; Blank sample, 2:45 h): 1442.9
- Peak Area ([2]; Blank sample, 3:00 h): 1235.4
- Peak Area ([2]; Blank sample, 3:15 h): 1166.0
- Peak Area ([2]; Blank sample, 3:30 h): 907.2
- Peak Area ([2]; Blank sample, 3:45 h): 891.1
- Peak Area ([2]; Blank sample, 4:00 h): 626.2
- %-residual anthocyanosides (% left) ([2]; Blank): 12%
- Peak Area [2, 3]: 5201.3
- Peak Area [2, 4]: 4584.2
- Peak Area [2, 5]: 4275.7
- Peak Area [2, 6]: 4273.1
- Peak Area [2, 7]: 4168.7
- Peak Area [2, 8]: 3749.9
- Peak Area [2, 9]: 3813.3
- Peak Area [2, 10]: 3544.9
- Peak Area [2, 11]: 3199.5
- Peak Area [2, 12]: 3327.2
- Peak Area [2, 13]: 2993.9
- Peak Area [2, 14]: 2761.0
- Peak Area [2, 15]: 2763.6
- Peak Area [2, 16]: 2579.8
- %-residual anthocyanosides (% left) ([2]; GSH-protected): 53%
SMILES: C[C@@H]1O[C@@H](OC[C@H]2O[C@@H](Oc3cc4c(O)cc(O)cc4[o+]c3-c3cc(O)c(O)c(O)c3)[C@H](O)[C@@H](O)[C@@H]2O)[C@H](O)[C@H](O)[C@H]1O [Dp-3-O-Rut, Delphinidin-3-O-rutinoside]
